# Columns and labels:
# [1] = system: human hepatocarcinoma cells (HepG2); assay: HepG2 cell count (trypan blue exclusion), antiproliferative and tumoricidal effect; type: cell-based
# Method: (§1) The cells were seeded in 60 mm-diameter Petri dishes. After plating the cells were grown for 24 hours prior to their treatment.
# (§2) In this experiment, increasing amounts of the test molecule were added to hemiconfluent HepG2 cells (Kogure et al., Cancer Chemother. Pharmacol., 2003; DOI. 10.1007/s); the antiproliferative and proapoptotic effects were determined at different times from cell seeding.
# (§3) The experimental design in some cases provided for the addition of the test compound once the cell culture had been prepared, in other cases the cultures were exposed to the compound every 24 hours after suitably removing the conditioned medium and washing the cells with new (complete) medium. The cells were counted in a Bürker chamber after suitable dilution with a vital dye to visualize the living cells. In particular, the trypan blue exclusion method was used for cell count at 0, 24 and 48 hour treatment. At least 10 cell counts were performed for each experiment and each treatment was carried out in quadruple.
# (§4) A further analysis involved cytofluorimetry utilizing propidium iodide as a marker for […] cells. The test compound was assayed vs. the CTP inhibitor etomoxir to verify whether the tumoricidal effect could be attributed to CPT-1 inhibition or involved novel mechanisms.
# The data relating to cell viability are expressed as percentage on the number of viable cells from control cultures (=100%). (E=etomoxir; ST1326=tested compound). […] At the same concentrations etomoxir was ineffective.
# [2] = system: acute leukaemia T cells (Jurkat); assay: Cell mortality of Jurkat cells by propidium iodide flow cytofluorimetry; type: cell-based
# Method: The cells were seeded in […] flasks. After plating the cells were grown for 24 hours prior to their treatment.
# The experiment was carried out by adding increasing amounts of the test molecule to hemiconfluent Jurkat cells; the proapoptotic effect was determined at different times from culture preparation.
# The experimental design provided for the addition of the test compound only at the start of cell culturing, and the determination of the effects at the established times. The data on cell mortality were obtained using propidium iodide flow cytofluorimetry techniques only. The fact that those cells live suspended in culture rendered these assays extremely easy to perform.
# For this reason the cell mortality was determined just after 2 hour treatment and at 24, 48 and 72 hrs.
# The mortality was calculated as the percentage over 10.000 acquired standard events. Since the results are almost exactly overlapping, with very low deviation in all the readings for each single experiment, the mean values of 5 cytofluorimetric readings are reported in the following Table without standard deviation.
# [3] = system: AH-130 Yoshida ascites hepatoma; assay: In vivo antineoplastic activity in rats bearing Yoshida tumor; design: species or system rat; details: 25 mg/Kg i.p., alternate days, 4 treatments, 15 animals
# Method: Male Wistar rats (Morini s.r.l.) of 190-200 g weight were maintained at 22±2° C., with a light/dark cycle of 12 hours, and were given free access to water and food (standard diet). Some rats were intraperitoneally inoculated with 10×10^7 cells from AH-130 Yoshida ascites hepatoma (Llovera et al., Int. J. Cancer 61:138-41 (1995); kind gift from Prof. J M Argilès). 5-7 days after the inoculum, the rats developed an ascites that could be detected by macroscopic analysis of the abdomen.
# (§5) The experimental protocol provided that 7 days after ascites induction 15 animals (treated group) received 2 ml of a buffered saline containing ST (25 mg/Kg i.p.), whereas other 15 animals (control group) received the buffered saline alone. The same treatment was conducted at alternate days for one week up to a total of 4 treatments for each animal. The dosage was selected on the basis of preliminary studies in which a 6.1 μM plasma concentration of ST was achieved 5 hr after intraperitoneal administration. The animals were subsequently kept under observation for 3 weeks (follow-up), examining the ascites effusion, the presence of subcutaneous neoplastic mass in the inoculum site, and the mortality.
# normal PBMCs = assay: Viability test with lymphocytes (PBMCs) taken from healthy individuals; type: cell-based; details: 72 hours
# Method: In addition, in order to exclude the induction of toxicity in normal PBMCs by the test molecule, viability tests were also carried out with lymphocytes taken from healthy individuals and contacted with the test compound.
# [4] = Plasma concentration after intraperitoneal administration (preliminary studies); type: in vivo, rat; details: 5 hr after intraperitoneal administration
# Method: as §5
# [5] = system: human hepatocarcinoma cells (HepG2); assay: Cell mortality of HepG2 cells by propidium iodide flow cytofluorimetry; type: cell-based
# Method: as §1, §2, §3, §4
# In addition, assays on cell viability were carried out using flow cytofluorimetry techniques.
# In further experiments the test molecule was added every 24 hours, as above described, after suitably removing the surnatants and washing the cultures with complete medium. […] In the control, the surnatant was eliminated and complete medium alone was added to the cultures.
structure (smiles),measurement,setting,value
"CCCCCCCCCCCCCCNC(=O)N[C@H](CC(=O)[O-])C[N+](C)(C)C [ST1326, R-4-trimethylammonium-3-(tetradecylcarbamoyl)-Aminobutyrate]",number of viable cells versus control cultures (FIGURE),"[1]; HepG2, less than 10 μM, after 24 hours",remarkable reduction in the number of cells
same,antiproliferative and tumoricidal activity in vitro,"[1]; tumor cell lines, same experimental conditions for etomoxir and compounds (I)",in vitro antiproliferative effect associated with a significant tumoricidal activity
same,cell mortality,"[2]; 0.1 μM, 2 hours",3%
same,cell mortality,"[2]; 0.1 μM, 24 hours",4%
same,cell mortality,"[2]; 0.1 μM, 48 hours",5%
same,cell mortality,"[2]; 0.1 μM, 72 hours",13%
same,cell mortality,"[2]; 0.25 μM, 2 hours",3%
same,cell mortality,"[2]; 0.25 μM, 24 hours",5%
same,cell mortality,"[2]; 0.25 μM, 48 hours",8%
same,cell mortality,"[2]; 0.25 μM, 72 hours",14%
same,cell mortality,"[2]; 0.50 μM, 2 hours",7%
same,cell mortality,"[2]; 0.50 μM, 24 hours",15%
same,cell mortality,"[2]; 0.50 μM, 48 hours",35%
same,cell mortality,"[2]; 0.50 μM, 72 hours",56%
same,cell mortality,"[2]; 1.0 μM, 2 hours",6%
same,cell mortality,"[2]; 1.0 μM, 24 hours",79%
same,cell mortality,"[2]; 1.0 μM, 48 hours",83%
same,cell mortality,"[2]; 1.0 μM, 72 hours",90%
same,cell mortality,"[2]; 2.5 μM, 2 hours",6%
same,cell mortality,"[2]; 2.5 μM, 24 hours",91%
same,cell mortality,"[2]; 2.5 μM, 48 hours",97%
same,cell mortality,"[2]; 2.5 μM, 72 hours",99%
same,cell mortality,"[2]; 5.0 μM, 2 hours",8%
same,cell mortality,"[2]; 5.0 μM, 24 hours",99%
same,cell mortality,"[2]; 5.0 μM, 48 hours",99%
same,cell mortality,"[2]; 5.0 μM, 72 hours",99%
same,cell mortality,"[2]; 10 μM, 2 hours",20%
same,cell mortality,"[2]; 10 μM, 24 hours",99%
same,cell mortality,"[2]; 10 μM, 48 hours",99%
same,cell mortality,"[2]; 10 μM, 72 hours",99%
same,Presence of cachexy (No. of animals),[3],1
same,Presence of tumor cells in the abdominal cavity (post-mortem examination) (No. of animals),[3],0
same,Presence of tumor mass in the inoculum site (No. of animals),[3],0
same,Survival at 1 week follow-up (No. of survived animals),[3],15
same,Survival at 2 week follow-up (No. of survived animals),[3],15
same,Survival at 3 week follow-up (No. of survived animals),[3],15
same,viability test (cell mortality) in PBMCs,normal PBMCs; 1.0 μM,9%
same,viability test (cell mortality) in PBMCs,normal PBMCs; 5.0 μM,10%
same,viability test (cell mortality) in PBMCs,normal PBMCs; 10 μM,10%
same,viability test (cell mortality) in PBMCs,normal PBMCs; 20 μM,12%
same,plasma concentration,[4],6.1 µM
same,cell mortality,"[5]; HepG2, 0.1 μM added every 24 hours, 48 hours (second addition)",45 ± 2.0%
same,cell mortality,"[5]; HepG2, 0.1 μM added every 24 hours, 72 hours (third addition)",56.5 ± 1.2%
same,cell mortality,"[5]; HepG2, 0.1 μM, prior experiments, partial tumoricidal effect",~50%
same,cell mortality,"[5]; HepG2, 0.1 μM, treated only once (time 0), 24 hours",15.3 ± 2.1%
same,cell mortality,"[5]; HepG2, 0.1 μM, treated only once (time 0), 48 hours",27.3 ± 2.2%
same,cell mortality,"[5]; HepG2, 0.1 μM, treated only once (time 0), 72 hours",49.9 ± 1.2%
same,cell mortality,"[5]; HepG2, 5 μM added every 24 hours, 48 hours (second addition)",64.7 ± 1.7%
same,cell mortality,"[5]; HepG2, 5 μM added every 24 hours, 72 hours (third addition)",89.7 ± 1.4%
same,cell mortality,"[5]; HepG2, 5 μM, treated only once (time 0), 24 hours",25.78 ± 1.70%
same,cell mortality,"[5]; HepG2, 5 μM, treated only once (time 0), 48 hours",56.29 ± 1.51%
same,cell mortality,"[5]; HepG2, 5 μM, treated only once (time 0), 72 hours",93.48 ± 1.5%
same,cell mortality,"[5]; HepG2, 10 μM added every 24 hours, 48 hours (second addition)",87.5 ± 2.03%
same,cell mortality,"[5]; HepG2, 10 μM added every 24 hours, 72 hours (third addition)",91.3 ± 1.9%
same,cell mortality,"[5]; HepG2, 10 μM, treated only once (time 0), 24 hours",53.21 ± 1.5%
same,cell mortality,"[5]; HepG2, 10 μM, treated only once (time 0), 48 hours",85.10 ± 0.9%
same,cell mortality,"[5]; HepG2, 10 μM, treated only once (time 0), 72 hours",96.3 ± 1.1%
same,cell mortality,"[5]; HepG2, 20 μM added every 24 hours, 48 hours (second addition)",93.9 ± 1.03%
same,cell mortality,"[5]; HepG2, 20 μM added every 24 hours, 72 hours (third addition)",98.1 ± 0.9%
same,cell mortality,"[5]; HepG2, 20 μM, treated only once (time 0), 24 hours",88.22 ± 1.9%
same,cell mortality,"[5]; HepG2, 20 μM, treated only once (time 0), 48 hours",89.10 ± 0.17%
same,cell mortality,"[5]; HepG2, 20 μM, treated only once (time 0), 72 hours",98.51 ± 1.3%

# From patent publication US8314144B2, “Compounds having antitumor activity” (Defiante Farmaceutica, S.A., priority 2004, dated 2012)
